Source: article PMC12040169 (PLOS Biology, 2025)

Assay: in vitro
Conditions: human, hela cells, % viability

SMILES	viability at 28.5 h, 10 µM [%]
Cc1c(C(=O)O)sc(S(=O)(=O)N2CCN(C(=O)Cc3ccccc3)CC2)c1C(=O)O [CBK297148]	96.2
O=C(c1cc(CO)ccn1)N(Cc1ccccn1)CC1CCCO1 (centres unmarked) [CBK306820]	97
O=C1NC[C@@H](CCC(=O)N2CCCC2)N2C[C@@H](NC(=S)Nc3ccccc3)C[C@@H]12 [CBK289004]	113
CCOc1ccccc1NC(=O)CCCC(=O)O [CBK275986]	98.9
O=C(O)c1cc(Nc2nc(N3CCOCC3)nc(N3CCOCC3)n2)ccc1Cl [CBK268081]	97.5
CN(C)C(=O)c1nccnc1-c1ccc(COc2ccc3c(c2)OCO3)cc1 [CBK050829]	91.1
CC(=O)NCCNS(=O)(=O)c1ccc(C(C)C)cc1 [CBK043726]	92.5
COc1ccccc1CN(CCCn1ccnc1)Cc1ccoc1 [CBK283123]	97.2
Cc1cccc(NC(=O)c2cnc3scc(C)n3c2=O)c1 [CBK287453]	112
CC(=O)N(C)Cc1cccc(Nc2ncnc3c2cnn3CCO)c1 [CBK305979]	96.1
O=C(O)C1C2C=CC(C2)C1C(=O)N1CCN(Cc2ccccc2Cl)CC1 (centres unmarked) [CBK270334]	93
CCOC(=O)c1cc(CC)sc1NC(=O)c1cc2ccccc2o1 [CBK267596]	88.3
COc1ccc2c(ccn2S(=O)(=O)c2ccsc2C(=O)O)c1 [CBK002378]	102
Cc1ccc([N+](=O)[O-])cc1NC(=O)CSC1=NCCS1 [CBK267489]	88.6
CC(C)(C)c1ccc(-c2cc3ncccc3nc2N)cc1 [CBK081199]	80.4
O=C(CSc1ccc(Cl)cc1)Nc1cccc2nsnc12 [CBK267936]	90.8
O=C1NC2(CCNCC2)Oc2ccc(-c3cccnc3)cc21 [CBK086611]	95.4
CCN(CC)S(=O)(=O)c1ccc(C)c(C(=O)Oc2cccc(-c3cnc4ccccc4n3)c2)c1 [CBK264577]	85.8
CC(C)[C@H](CO)Nc1nc(-c2ccco2)cn2ccnc12 [CBK066316]	103
COCC(=O)Nc1ccc2c(c1)NC(=O)C(C)(C)CO2 [CBK287658]	89
COc1cccc(N2C(=O)N[C@@H]3CCN(C(=O)c4cccs4)[C@@H]3C2=O)c1 [CBK289279]	82.3
O=C1CC(Nc2ccc(N3CCOCC3)cc2)C(=O)N1CCc1ccccc1 (centres unmarked) [CBK269339]	111

SMILES	viability at 28.5 h, 10 µM [%]
CN1CCN(CCCNC(=O)N2CCN(Cc3ccccc3)CC2)CC1 [CBK155621]	91.3
COCCN(C(=O)CCC(=O)NCCc1ccccc1)C1CCN(C)CC1 [CBK014576]	96.9
Cc1ccc(-c2n[nH]c(=O)o2)cc1Br [CBK288443]	85.9
COCCn1c(CO)nnc1[C@H]1C[C@@H](NC(=O)c2cc(C)ccc2Cl)C1 [CBK306564]	81.2
CC(C)c1ccc(N2C(=O)[C@@H]3C[C@@H](NC(=O)c4cccs4)CCN3C2=O)cc1 [CBK289541]	93.1
O=C1COc2ccccc2C/C=C/C[C@H]2CN(C(=O)Cn3ncc4ccccc4c3=O)CC[C@H]2N1 [CBK292084]	85.6
COc1ccc(C(=O)N2CCN(Cc3cc(OC)ccc3OC)CC2)cc1 [CBK263032]	88.8
CC(=O)Nc1ccc(CCOc2nccnc2-c2ccccc2)cc1 [CBK106683]	96.3
COc1ccc(OCCNC(=O)C2(c3ccc(OC)cc3)CC2)cc1 [CBK149821]	91.8
O=C(O)c1ccccc1C(=O)c1ccc(Oc2ncc(C(F)(F)F)cc2Cl)cc1 [CBK161648]	106
CNC(=O)C1(Cc2ccccc2-c2cccs2)CCN(C(=O)c2ccccc2OC)CC1 [CBK285685]	107
COc1ccc(-c2cc(C(=O)N/N=C/c3c(C)[nH]c4ccccc34)[nH]n2)cc1 [CBK262884]	55.7
NC(=O)NCc1ccc(F)cc1 [CBK019769]	110
COc1cc(/C=C/CN2CCC(C(=O)NC(C)c3ccc(F)cc3)CC2)ccc1OC(C)=O (centres unmarked) [CBK148061]	90.1
Cc1ccc(-c2n[nH]c(=S)n2CCC(=O)NC(C)c2ccc3c(c2)CCCC3)cc1 (centres unmarked) [CBK295666]	90.1
O=C(CSc1nnc(-c2ccncc2)s1)Nc1ccc(Cl)cc1 [CBK270069]	87.9
C=CCN1C(=O)/C(=C2/Sc3ccc(OC)cc3N2C)S/C1=N\c1cc(C#N)ccc1NCC [CBK262431]	108
CC(C)(O)C#Cc1ccc(C(=O)NC(CSCc2ccccc2)C(=O)O)s1 (centres unmarked) [CBK267705]	98.4
CS(=O)(=O)N(CC(=O)NCc1ccccn1)c1ccc2c(c1)OCO2 [CBK269385]	87.2
O=C(N/N=C/c1ccc(OC(=O)c2ccc([N+](=O)[O-])cc2)cc1)c1cccnc1 [CBK262146]	101
O=C1COc2ccccc2C/C=C/CC2(CCN(C(=O)Cc3cccnc3)CC2)C(=O)NCCN1 [CBK292153]	110
CC(=O)Nc1ccc(-c2ccc(C(=O)N3CCN(C(=O)c4ccco4)CC3)cn2)cc1 [CBK160186]	85.8

SMILES	viability at 28.5 h, 10 µM [%]
CN(CC(=O)OCC(=O)c1ccccc1)S(=O)(=O)c1ccc(Cl)cc1 [CBK264363]	105
CNCCC(Sc1ccccn1)c1ccccc1 (centres unmarked) [CBK021724C]	93.5
CCOc1ccc(CNc2ccc(N3CCOCC3)c(C(=O)O)c2)cc1OC [CBK269192]	93
CC1(C)CC(NC(=O)C2CCCN(S(C)(=O)=O)C2)c2ccccc2O1 (centres unmarked) [CBK304365]	98.2
COc1cccc(C(C(F)(F)F)P(C)(=O)O)c1 (centres unmarked) [CBK262393]	96.8
CCCCSc1nc(N)cc(N2CCOCC(CN(C)C)C2)n1 (centres unmarked) [CBK306659]	103
CCc1cn(C[C@H](NC(=O)c2ccco2)C(=O)O)c(=O)[nH]c1=O [CBK289670]	86
CNC(=O)c1c(NC(=O)c2nc(SCc3ccccc3)ncc2Cl)sc2c1CCCC2 [CBK269087]	93.9
CN(CC(=O)Nc1cccnc1N1CCNCC1)C(=O)c1ccccc1 [CBK028264T]	95.8
COc1ccc(N2CCN(Cc3nc4c(c(=O)n(C)c(=O)n4C)n3Cc3cccc(C)c3)CC2)cc1 [CBK269552]	78.4
CCOC(=O)CSc1nnc(NS(=O)(=O)c2cccc(Cl)c2C)s1 [CBK004669]	104
Cc1n[nH]c(C)c1CNC(=O)c1[nH]c2c(Cl)cccc2c1C [CBK282534]	96
O=C1CC2(CCC3C(C(=O)NC4CCCC4)C32)Oc2ccccc21 (centres unmarked) [CBK284922]	97.6
CCS(=O)(=O)N1CCN(Cc2ccccc2OC)CC1 [CBK264280G]	92.7
Cn1ccnc1CN1C[C@@H]2CCCN2C[C@@H]1Cc1ccccc1 [CBK283202]	91.1
CCOC(=O)N1CCC(NS(=O)(=O)c2ccc(F)cc2)CC1 [CBK045455]	95.1
COc1ccccc1-c1nccnc1NCCCO [CBK088971]	98.8
CC(=O)Nc1ccc(/C=N/NC(=O)CN2CCCCCCC2)cc1 [CBK261617]	88.8
Cc1nc(CN2CCCC3(CCN(C(=O)c4ccoc4)C3)C2)cs1 (centres unmarked) [CBK132838]	97.6
CCNC(=O)N1CC(C)N(CCCC(c2ccc(F)cc2)c2ccc(F)cc2)CC1C (centres unmarked) [CBK024912C]	105
O=c1[nH]c2ncc(-c3ccc4c(c3)OCO4)nc2n1C1CC1 [CBK064922]	98.5
S=C1NCN(Cc2ccc3c(c2)OCO3)CN1 [CBK267899]	87.1

SMILES	viability at 28.5 h, 10 µM [%]
NC(=O)CCNC(=O)N1CCc2ccccc2C1 [CBK155288]	104
COc1ccc(NC(=O)c2ccc3ncsc3c2)cc1 [CBK287368]	107
NC(=S)c1ccc2c(c1)OCO2 [CBK022803]	86.3
Cc1n[nH]nc1C(=O)N(C)CC(C)Oc1ccc(Cl)c(Cl)c1 (centres unmarked) [CBK306173]	85.2
Cc1cc(OCC(=O)N2CCC(C(=O)Nc3ccccc3)CC2)no1 [CBK305067]	99.5
Cn1sc(=O)c2cc(S(=O)(=O)NC3CC3)ccc21 [CBK009163]	86
O=c1c(Cc2ccccc2)c(O)c2cccc3c2n1CCC3 [CBK291166]	93.3
CS(=O)(=O)Nc1ncc(-c2ccco2)cc1C(=O)Nc1ccon1 [CBK076512]	89.6
Cc1cc2c(cc1Cl)C(=O)CC1(CCNCC1)O2 [CBK282715]	83.1
S=c1[nH]cnc2scc(-c3ccc(Cl)cc3)c12 [CBK094069]	76.5
c1cnc2[nH]c(C3CC3)c(CN3CCN4CCCCC4C3)c2c1 (centres unmarked) [CBK285313]	81.5
COc1cc(OC)nc(CN2CCOC3(CCN(C(=O)c4ccc5ccccc5c4)CC3)C2)n1 [CBK161121A]	91.6
C[C@@H]1CN(C)CCN1c1nccnc1OCCOc1cccnc1OCCCCCN(C)C [CBK051566]	103
Cc1ccc(CNCCn2nnc(-c3ccc(CN4CCC(C)CC4)cc3)n2)cc1 [CBK154882T]	93.3
COc1cccc2cc(C(=O)N3CCN(CCO)CC3)c(=O)oc12 [CBK293932]	89.5
CN(C)S(=O)(=O)c1ccc(C(=O)Nc2ccc3ncn(C)c(=O)c3c2)cc1 [CBK268450]	103
COC(=O)N1CCC(C(=O)NC(c2ccccc2)c2ncccc2C)CC1 (centres unmarked) [CBK059885]	92.6
CN1CCC(N2CC[C@H](c3nnc(-c4cncn4C)o3)C2)CC1 [CBK289403]	117
Cc1cc2c(cc3c(=O)n(CC(=O)NC4CC4)nc(C)n32)s1 [CBK284067]	74.3
COc1ccc(OC(=O)C2COc3ccccc3O2)cc1 (centres unmarked) [CBK131816]	100
Cc1ccn2c(CN3CCC(n4nc(C)cc4C)CC3)c(C)nc2c1 [CBK281616]	83.6

Same assay, conditions: human, hela cells, % viability, bulk resorufin, single well

SMILES	viability at 28.5 h, 10 µM [%]
c1ccc2c(-c3ccc4c(c3)COC3(CCNCC3)O4)cccc2c1 [CBK060951]	92.5
Cc1cccc(N2C(=O)NC(=O)C(CCc3ccccn3)(CCc3ccccn3)C2=O)c1C [CBK269075]	91.7
